Reference: patent US10688200B2, “Urea-based prostate specific membrane antigen (PSMA) inhibitors for imaging and therapy” (Five Eleven Pharma Inc., priority 2015, dated 2020)

How the values were obtained:
[1] = test system: PSMA-expressing LNCaP cells; test: Cell binding and internalization; format: cell-based, human; conditions: 37° C.
Experimental: The cellular uptake and internalization kinetics of the [^68Ga]1a, [^68Ga]5a and [^68Ga]5b were determined using PSMA-expressing LNCaP cells. Furthermore, to be able to discriminate between total cellular activity (sum of membrane-associated and internalized activity) and internalized activity, all incubations were followed by a washing step with mild acid at 4° C. to remove specifically cell-surface bound radioligand by displacement.
LNCaP cells (in 6-well plates in triplicates) were incubated in RPMI-1640 medium with [^68Ga]1a, [^68Ga]5a or [^68Ga]5b for 0-2 h at 37° C. At the indicated time, the medium was removed and the cells were washed twice and then incubated with a mild acid buffer (50 mM glycine, 150 mM NaCl, pH 3.0) at 4° C. for 5 min. The supernatant (containing cell surface-bound radioactivity) was pooled and the cell pellet (containing internalized radioactivity) was collected with filter paper and then radioactivity in supernatant and cell pellet was counted on a gamma counter.
LNCaP cells were incubated with [^68Ga]1a, [^68Ga]5a and [^68Ga]5b for up to 2 h at 37° C. to determine whether the compound is internalized by endocytosis. The cells were then washed with a mild acid buffer to remove extracellularly bound compound.
Non specific binding (NSB) was evaluated by blocking with 20 μM PMPA. Specificity of cell uptake (SB) was calculated by subtracting the respective signals resulting from PMPA blocking. Values are expressed as % of applied radioactivity bound to 10^6 cells.

[2] = test system: LNCaP tumor bearing nude mice; test: Biodistribution of [68Ga]labeled ligand in PSMA positive tumor bearing nude mice; format: in vivo, mouse; conditions: 1 h post-injection, i.v., n = 3
Experimental: In a dish contained 5×10^6 cells of LNCaP in 50% Matrigel (Becton Dickinson, Heidelberg, Germany) were subcutaneously inoculated into the left shoulder of male 5- to 6-week-old CD-1 nu/nu mice (Charles River Laboratories). The tumors were allowed to grow for 8 weeks until approximately 0.5 cm^3 in size.
The ^68Ga-radiolabeled compounds were injected via tail vein (25 μCi per mouse; 0.1-0.2 nmol). At 1 h after injection, the animals were sacrificed. Organs of interest were dissected and weighed. The radioactivity was measured with a gamma counter and calculated as % ID/g.

[3] = Biodistribution of radiotracers in normal mice; format: in vivo, mouse; conditions: normal male mice
How it was run: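 Male CD-1 mice received 35 μCi [^68Ga] radiotracer (0.2 nmole ligand) by tail vein. Four mice per time point sacrificed at 2, 30, 60 and 120 min p.i.; organs and blood weighed and gamma counted. %ID/g calculated against a standard dilution of the dose, decay-corrected.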

[4] = test system: LNCaP (left shoulder) and PC-3 (right shoulder) tumor bearing nude mouse; test: Small animal PET imaging with [68Ga]1a and [68Ga]4a; format: in vivo; conditions: 60 to 75 min after i.v. injection
Experimental: Male athymic mice (CD-1 nude, 5-6 weeks old) were obtained from Charles River, and were allowed to acclimatize at the vivarium for 1 week prior to implanting tumors. Mice were provided with food and water ad libitum. LNCaP tumors were induced on the left shoulder by sub-cutaneous (s.c.) injection of 5.0×10^6 cells in a 200 μL cell suspension of a 1:1 v/v mixture of media with reconstituted basement membrane (BD Matrigel™, Collaborative Biomedical Products Inc., Bedford, Mass.). Similarly, PC-3 tumors were induced on the right shoulder by s.c. injection of 2.0×10^6 cells. Palpable LNCaP tumors developed after a period of 4-5 weeks.
Dynamic small animal PET (APET) imaging studies of LNCaP (left shoulder) and PC-3 (right shoulder) tumor bearing nude mouse were performed with [^68Ga]1a and [^68Ga]4a. PET imaging studies were performed on a Phillips Mosaic small animal PET scanner, which has an imaging field of view of 11.5 cm. Under isoflurane anesthesia (1-2%, 1 L/min oxygen), the tumor-bearing nude mouse was injected with 0.5 mCi activity by an intravenous injection into the lateral tail vein. Data acquisition began at 30 min after the injection. Dynamic scans were conducted over a period of 1 h (5 min/frame; image voxel size 0.5 mm^3). Mouse was visually monitored for breathing, and a heating pad was used to maintain body temperature throughout the entire procedure. Images were reconstructed and a region of interest (ROI) analysis was performed using AMIDE software (http://amide.sourceforge.net/).
Representative animal PET images of LNCaP xenograft mice between 60 to 75 min after i.v. injection of [^68Ga]1a, and [^68Ga]4a are shown in FIGS. 3A-3F. […] FIGS. 3A-3F show sagittal, transaxial and coronal sections of APET images of nude mouse with LNCaP tumor at left shoulder and PC-3 tumor at right shoulder between 60 to 75 min post i.v. injection of [^68Ga]1a (FIGS. 3A-3C) and [^68Ga]4a (FIG. 3D-3F).

## O=C(O)CCc1ccc2c(c1)C[N+]13CC[N+]45CC(=O)[O][68Ga-3]14([O]C(=O)C3)([O]2)[O]c1ccc(CCC(=O)NCCCCCC(=O)NCCCC[C@H](NC(=O)N[C@@H](CCC(=O)O)C(=O)O)C(=O)O)cc1C5 (some centres unmarked) [[^68Ga]1a, reference compound]
[1]; 5 min
  Cell surface binding activity: 3.21 ± 0.74 % ID/10^6 cells
  Internalized activity: 0.49 ± 0.21 % ID/10^6 cells
[1]; 15 min
  Cell surface binding activity: 3.61 ± 0.47 % ID/10^6 cells
  Internalized activity: 2.51 ± 0.19 % ID/10^6 cells
[1]; 30 min
  Cell surface binding activity: 2.95 ± 0.36 % ID/10^6 cells
  Internalized activity: 4.30 ± 0.72 % ID/10^6 cells
[1]; 60 min
  Cell surface binding activity: 3.22 ± 0.81 % ID/10^6 cells
  Internalized activity: 7.43 ± 1.27 % ID/10^6 cells
[1]; 90 min
  Cell surface binding activity: 3.41 ± 0.17 % ID/10^6 cells
  Internalized activity: 8.34 ± 0.16 % ID/10^6 cells
[1]; 120 min
  Cell surface binding activity: 3.35 ± 0.04 % ID/10^6 cells
  Internalized activity: 8.82 ± 0.45 % ID/10^6 cells
[2]
  Organ distribution: Blood: 0.37 ± 0.07 % dose/g
  Organ distribution: Bone: 0.21 ± 0.05 % dose/g
  Organ distribution: Brain: 0.04 ± 0.01 % dose/g
  Organ distribution: Heart: 0.59 ± 0.14 % dose/g
  Organ distribution: Kidney: 176 ± 5.66 % dose/g
  Organ distribution: LNCaP tumor: 10.07 ± 3.32 % dose/g
  Organ distribution: Liver: 0.62 ± 0.24 % dose/g
  Organ distribution: Lung: 2.44 ± 1.03 % dose/g
  Organ distribution: Muscle: 0.58 ± 0.24 % dose/g
  Organ distribution: Pancreas: 1.38 ± 0.63 % dose/g
  Organ distribution: Skin: 1.14 ± 0.58 % dose/g
  Organ distribution: Spleen: 18.48 ± 3.02 % dose/g
[3]; 2 min
  Biodistribution: Blood: 7.75 ± 1.60 % dose/g
  Biodistribution: Bone: 1.77 ± 0.16 % dose/g
  Biodistribution: Brain: 0.25 ± 0.02 % dose/g
  Biodistribution: Heart: 3.32 ± 0.51 % dose/g
  Biodistribution: Kidney: 40.5 ± 7.81 % dose/g
  Biodistribution: Liver: 11.0 ± 0.99 % dose/g
  Biodistribution: Lung: 5.29 ± 0.82 % dose/g
  Biodistribution: Muscle: 1.68 ± 0.20 % dose/g
  Biodistribution: Pancreas: 1.91 ± 0.17 % dose/g
  Biodistribution: Skin: 2.42 ± 0.38 % dose/g
  Biodistribution: Spleen: 7.46 ± 0.84 % dose/g
[3]; 30 min
  Biodistribution: Blood: 0.54 ± 0.08 % dose/g
  Biodistribution: Bone: 0.24 ± 0.08 % dose/g
  Biodistribution: Brain: 0.03 ± 0.00 % dose/g
  Biodistribution: Heart: 0.27 ± 0.09 % dose/g
  Biodistribution: Kidney: 108 ± 23.7 % dose/g
  Biodistribution: Liver: 0.35 ± 0.03 % dose/g
  Biodistribution: Lung: 1.14 ± 0.17 % dose/g
  Biodistribution: Muscle: 0.32 ± 0.01 % dose/g
  Biodistribution: Pancreas: 0.76 ± 0.11 % dose/g
  Biodistribution: Skin: 0.95 ± 0.20 % dose/g
  Biodistribution: Spleen: 2.95 ± 0.36 % dose/g
[3]; 60 min
  Biodistribution: Blood: 0.33 ± 0.07 % dose/g
  Biodistribution: Bone: 0.23 ± 0.02 % dose/g
  Biodistribution: Brain: 0.02 ± 0.00 % dose/g
  Biodistribution: Heart: 0.34 ± 0.07 % dose/g
  Biodistribution: Kidney: 91.1 ± 11.6 % dose/g
  Biodistribution: Liver: 6.09 ± 0.86 % dose/g
  Biodistribution: Lung: 0.93 ± 0.14 % dose/g
  Biodistribution: Muscle: 0.19 ± 0.02 % dose/g
  Biodistribution: Pancreas: 0.59 ± 0.10 % dose/g
  Biodistribution: Skin: 0.44 ± 0.05 % dose/g
  Biodistribution: Spleen: 4.39 ± 0.42 % dose/g
[3]; 120 min
  Biodistribution: Blood: 0.12 ± 0.03 % dose/g
  Biodistribution: Bone: 0.21 ± 0.05 % dose/g
  Biodistribution: Brain: 0.01 ± 0.00 % dose/g
  Biodistribution: Heart: 0.23 ± 0.19 % dose/g
  Biodistribution: Kidney: 83.9 ± 13.6 % dose/g
  Biodistribution: Liver: 2.56 ± 0.80 % dose/g
  Biodistribution: Lung: 0.77 ± 0.17 % dose/g
  Biodistribution: Muscle: 0.12 ± 0.03 % dose/g
  Biodistribution: Pancreas: 0.64 ± 0.23 % dose/g
  Biodistribution: Skin: 0.31 ± 0.12 % dose/g
  Biodistribution: Spleen: 5.07 ± 2.68 % dose/g
[4]
  LNCaP tumor visualization in PET images, in words: clearly visualized
  PC-3 (PSMA negative) tumor uptake in PET images, in words: did not show any uptakes

## O=C(O)CCc1ccc(O)c(CN(CCN(CC(=O)O)Cc2cc(CCC(=O)NCCCCCC(=O)NCCCC[C@H](NC(=O)N[C@@H](CCC(=O)O)C(=O)O)C(=O)O)ccc2O)CC(=O)O)n1 [[^68Ga]4a, metal not drawn]
[3]; 2 min
  Biodistribution: Blood: 8.59 ± 0.82 % dose/g
  Biodistribution: Bone: 2.33 ± 0.21 % dose/g
  Biodistribution: Brain: 0.27 ± 0.04 % dose/g
  Biodistribution: Heart: 3.62 ± 0.34 % dose/g
  Biodistribution: Kidney: 60.7 ± 2.89 % dose/g
  Biodistribution: Liver: 2.22 ± 0.23 % dose/g
  Biodistribution: Lung: 5.45 ± 0.44 % dose/g
  Biodistribution: Muscle: 2.68 ± 0.30 % dose/g
  Biodistribution: Pancreas: 2.35 ± 0.12 % dose/g
  Biodistribution: Skin: 2.84 ± 0.19 % dose/g
  Biodistribution: Spleen: 3.64 ± 0.16 % dose/g
[3]; 30 min
  Biodistribution: Blood: 0.95 ± 0.33 % dose/g
  Biodistribution: Bone: 0.37 ± 0.10 % dose/g
  Biodistribution: Brain: 0.04 ± 0.01 % dose/g
  Biodistribution: Heart: 0.56 ± 0.21 % dose/g
  Biodistribution: Kidney: 148 ± 5.73 % dose/g
  Biodistribution: Liver: 0.39 ± 0.12 % dose/g
  Biodistribution: Lung: 1.55 ± 0.30 % dose/g
  Biodistribution: Muscle: 0.61 ± 0.10 % dose/g
  Biodistribution: Pancreas: 0.89 ± 0.12 % dose/g
  Biodistribution: Skin: 0.99 ± 0.16 % dose/g
  Biodistribution: Spleen: 3.51 ± 1.69 % dose/g
[3]; 60 min
  Biodistribution: Blood: 0.30 ± 0.03 % dose/g
  Biodistribution: Bone: 0.24 ± 0.02 % dose/g
  Biodistribution: Brain: 0.03 ± 0.00 % dose/g
  Biodistribution: Heart: 0.31 ± 0.14 % dose/g
  Biodistribution: Kidney: 181 ± 26.81 % dose/g
  Biodistribution: Liver: 0.23 ± 0.01 % dose/g
  Biodistribution: Lung: 1.18 ± 0.14 % dose/g
  Biodistribution: Muscle: 0.35 ± 0.07 % dose/g
  Biodistribution: Pancreas: 1.09 ± 0.27 % dose/g
  Biodistribution: Skin: 0.45 ± 0.07 % dose/g
  Biodistribution: Spleen: 2.83 ± 1.49 % dose/g
[3]; 120 min
  Biodistribution: Blood: 0.20 ± 0.10 % dose/g
  Biodistribution: Bone: 0.23 ± 0.06 % dose/g
  Biodistribution: Brain: 0.02 ± 0.00 % dose/g
  Biodistribution: Heart: 0.21 ± 0.03 % dose/g
  Biodistribution: Kidney: 128 ± 25.0 % dose/g
  Biodistribution: Liver: 0.18 ± 0.05 % dose/g
  Biodistribution: Lung: 0.83 ± 0.21 % dose/g
  Biodistribution: Muscle: 0.20 ± 0.03 % dose/g
  Biodistribution: Pancreas: 1.02 ± 0.26 % dose/g
  Biodistribution: Skin: 0.30 ± 0.02 % dose/g
  Biodistribution: Spleen: 2.83 ± 1.25 % dose/g
[4]
  LNCaP tumor visualization in PET images, in words: clearly visualized
  PC-3 (PSMA negative) tumor uptake in PET images, in words: did not show any uptakes
